Measurements reported in ChEMBL document CHEMBL4406795, “An overview on the synthetic and medicinal perspectives of indenopyrazoles” (Eur J Med Chem, 2019).
≈ marks a conversion by molar mass, not a printed value.

Experiments:
Escherichia coli [1] = assay: Antibacterial activity against Escherichia coli MTCC 42 after 48 hrs by serial tube dilution method; type: functional; conditions: for MIC: Escherichia coli, MTCC 42, 48 h
Aspergillus niger [2] = assay: Antifungal activity against Aspergillus niger MTCC 282 after 120 hrs by serial tube dilution method; type: functional; conditions: MTCC 282, 120 h
[3] = molecular target: Cyclin-dependent kinase 2 (Homo sapiens, UniProt P24941); assay: Inhibition of CDK2 (unknown origin)
Candida albicans [4] = assay: Antifungal activity against Candida albicans MTCC 183 after 120 hrs by serial tube dilution method; type: functional; conditions: MTCC 183, 120 h
Bacillus subtilis [5] = assay: Antibacterial activity against Bacillus subtilis MTCC 441 assessed as zone of inhibition; type: functional
Staphylococcus aureus [6] = assay: Antibacterial activity against Staphylococcus aureus MTCC 7443 after 48 hrs by serial tube dilution method; type: functional; conditions: MTCC 7443, 48 h
Candida albicans [7] = assay: Antifungal activity against Candida albicans MTCC 183 assessed as zone of inhibition; type: functional
Bacillus subtilis [8] = assay: Antibacterial activity against Bacillus subtilis MTCC 441 after 48 hrs by serial tube dilution method; type: functional; conditions: MTCC 441, 48 h
Staphylococcus aureus [9] = assay: Antibacterial activity against Staphylococcus aureus MTCC 7443 assessed as zone of inhibition; type: functional
Escherichia coli [10] = assay: Antibacterial activity against Escherichia coli MTCC 42 assessed as zone of inhibition; type: functional
Aspergillus niger [11] = assay: Antifungal activity against Aspergillus niger MTCC 282 assessed as zone of inhibition; type: functional
Pseudomonas aeruginosa = assay: Antibacterial activity against Pseudomonas aeruginosa MTCC 741 after 48 hrs by serial tube dilution method; type: functional; conditions: MTCC 741, 48 h

SMILES: Cc1nn(-c2nc(-c3ccc(Cl)cc3)cs2)c2c1C(=O)c1ccccc1-2
- -logMIC (Escherichia coli [1]): 1.479

SMILES: CCc1nn(-c2nc(-c3ccc(Cl)cc3)cs2)c2c1Cc1ccccc1-2
- -logMIC (Escherichia coli [1]): 1.78

SMILES: Cc1ccc2nc(-n3nc(-c4ccc(Cl)cc4)c4c3-c3ccccc3C4=O)sc2c1
- MIC (Aspergillus niger [2]): 3.6 µM

SMILES: CCc1nn(-c2nc(-c3ccc(Cl)cc3)cs2)c2c1C(=O)c1ccccc1-2
- -logMIC (Escherichia coli [1]): 2.098

SMILES: COc1ccc(-c2n[nH]c3c2C(=O)c2c(C=O)cccc2-3)cc1
- IC50 [3]: 57 nM

SMILES: COc1ccc(-c2[nH]nc3c2C(=O)c2c(NC(=O)CN4CCN(C(=N)N)CC4)cccc2-3)cc1
- IC50 [3]: 13 nM

SMILES: O=[N+]([O-])c1ccc(-c2c3c(nn2-c2ccccc2)-c2ccccc2C3)cc1
- MIC (Aspergillus niger [2]): 50 µg/mL
- MIC (Candida albicans [4]): 50 µg/mL (≈ 141 µM)
- inhibition zone (IZ) (Bacillus subtilis [5]): 18 mm
- MIC (Staphylococcus aureus [6]): 50 µg/mL (≈ 141 µM)
- MIC (Escherichia coli [1]): 50 µg/mL (≈ 141 µM)
- inhibition zone (IZ) (Candida albicans [7]): 13 mm
- MIC (Bacillus subtilis [8]): 50 µg/mL (≈ 141 µM)
- inhibition zone (IZ) (Staphylococcus aureus [9]): 18 mm
- inhibition zone (IZ) (Escherichia coli [10]): 18 mm
- inhibition zone (IZ) (Aspergillus niger [11]): 13 mm

SMILES: OC(Cn1cncn1)(Cn1cncn1)c1ccc(F)cc1F [FLUCONAZOLE]
- MIC (Aspergillus niger [2]): 5 µM

SMILES: NC(=O)Nc1cccc2c1C(=O)c1c-2n[nH]c1-c1csc(Cl)c1
- IC50 [3]: 46 nM

SMILES: O=[N+]([O-])c1ccc(-c2nn(-c3ccccc3)cc2-c2c3c(nn2-c2ccccc2)-c2ccccc2C3)cc1
- MIC (Aspergillus niger [2]): 50 µg/mL
- MIC (Candida albicans [4]): 50 µg/mL (≈ 101 µM)
- inhibition zone (IZ) (Bacillus subtilis [5]): 20 mm
- MIC (Staphylococcus aureus [6]): 50 µg/mL (≈ 101 µM)
- MIC (Escherichia coli [1]): 50 µg/mL (≈ 101 µM)
- inhibition zone (IZ) (Candida albicans [7]): 18 mm
- MIC (Bacillus subtilis [8]): 50 µg/mL (≈ 101 µM)
- inhibition zone (IZ) (Staphylococcus aureus [9]): 20 mm
- inhibition zone (IZ) (Escherichia coli [10]): 20 mm
- inhibition zone (IZ) (Aspergillus niger [11]): 18 mm

SMILES: Clc1ccc(-c2nn(-c3ccccc3)cc2-c2c3c(nn2-c2ccccc2)-c2ccccc2C3)cc1
- inhibition zone (IZ) (Bacillus subtilis [5]): 17 mm
- MIC (Staphylococcus aureus [6]): 50 µg/mL (≈ 103 µM)
- MIC (Escherichia coli [1]): 50 µg/mL (≈ 103 µM)
- MIC (Bacillus subtilis [8]): 50 µg/mL (≈ 103 µM)
- inhibition zone (IZ) (Staphylococcus aureus [9]): 17 mm
- inhibition zone (IZ) (Escherichia coli [10]): 17 mm

SMILES: COc1cc2c(cc1OC)C1=NN(C(N)=S)C(c3ccc(F)cc3)C1C2 (stereo unspecified)
- MIC (Staphylococcus aureus [6]): 4 µg/mL (≈ 10.8 µM)
- MIC (Escherichia coli [1]): 4 µg/mL (≈ 10.8 µM)
- MIC (Pseudomonas aeruginosa): 4 µg/mL (≈ 10.8 µM)
- MIC (Bacillus subtilis [8]): 4 µg/mL (≈ 10.8 µM)

SMILES: Cc1nn(-c2nc(-c3ccc(Cl)cc3)cs2)c2c1Cc1ccccc1-2
- -logMIC (Escherichia coli [1]): 1.764

SMILES: COc1ccc(C2C3Cc4cc(OC)c(OC)cc4C3=NN2C(N)=O)cc1 (stereo unspecified)
- MIC (Aspergillus niger [2]): 2 to 4 µg/mL
- MIC (Candida albicans [4]): 2 to 4 µg/mL (≈ 5.44 to 10.9 µM)

SMILES: Clc1ccc(-c2c3c(nn2-c2ccccc2)-c2ccccc2C3)cc1
- MIC (Aspergillus niger [2]): 50 µg/mL
- MIC (Candida albicans [4]): 50 µg/mL (≈ 146 µM)
- inhibition zone (IZ) (Candida albicans [7]): 16 mm
- inhibition zone (IZ) (Aspergillus niger [11]): 16 mm

SMILES: O=[N+]([O-])c1cccc(-c2c3c(nn2-c2ccccc2)-c2ccccc2C3)c1
- MIC (Aspergillus niger [2]): 50 µg/mL
- MIC (Candida albicans [4]): 50 µg/mL (≈ 141 µM)
- inhibition zone (IZ) (Bacillus subtilis [5]): 17 mm
- MIC (Staphylococcus aureus [6]): 50 µg/mL (≈ 141 µM)
- MIC (Escherichia coli [1]): 50 µg/mL (≈ 141 µM)
- inhibition zone (IZ) (Candida albicans [7]): 15 mm
- MIC (Bacillus subtilis [8]): 50 µg/mL (≈ 141 µM)
- inhibition zone (IZ) (Staphylococcus aureus [9]): 17 mm
- inhibition zone (IZ) (Escherichia coli [10]): 17 mm
- inhibition zone (IZ) (Aspergillus niger [11]): 15 mm

SMILES: O=C(Nc1cccc2c1C(=O)c1c-2n[nH]c1-c1ccc(C(=O)N2CCNCC2)s1)NN1CCOCC1
- IC50 [3]: 8 nM
